Data as given in patent US20070088033A1, “Diaryl Substituted Pyridinones” (priority 2002, published 2007).
“And” between values parts separate entries of the source, which are not always exact repeats. Equal entries are not always repeated.

Biological target: T1, human p38 kinase alpha (Homo sapiens, UniProt Q16539)
T1 construct: The coding region of the human p38 cDNA was obtained by PCR-amplification from RNA isolated from the human monocyte cell line THP.1; GST (N); made in house; host or cells: E. coli DH10B
T1 sequence (Q16539 whole entry): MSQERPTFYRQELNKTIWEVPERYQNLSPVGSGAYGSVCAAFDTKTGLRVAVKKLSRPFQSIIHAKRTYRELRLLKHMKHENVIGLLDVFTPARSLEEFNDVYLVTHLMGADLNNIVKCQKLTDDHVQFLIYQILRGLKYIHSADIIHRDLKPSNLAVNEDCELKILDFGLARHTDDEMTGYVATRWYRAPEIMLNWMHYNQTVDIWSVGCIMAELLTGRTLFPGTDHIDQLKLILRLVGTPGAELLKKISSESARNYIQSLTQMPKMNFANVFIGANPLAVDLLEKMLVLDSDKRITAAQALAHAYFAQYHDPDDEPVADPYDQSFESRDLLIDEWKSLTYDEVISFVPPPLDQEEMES
Experiment: p38 kinase in vitro assay
Assay type: biochemical
Conditions: Table I; average of n trials, n=1 if not reported; read-out: p38 Alpha IC50
Description: The ability of compounds to inhibit human p38 kinase alpha was evaluated using two in vitro assay methods. In the first method, activated human p38 kinase alpha phosphorylates a biotinylated substrate, PHAS-I (phosphorylated heat and acid stable protein-insulin inducible), in the presence of gamma ^32p-ATP (^32P-ATP). PHAS-I was biotinylated prior to the assay and provides a means of capturing the substrate, which is phosphorylated during the assay. p38 Kinase was activated by MKK6. Compounds were tested in 10 fold serial dilutions over the range of 100 μM to 0,001 μM using 1% DMSO. Each concentration of inhibitor was tested in triplicate.
All reactions were carried out in 96 well polypropylene plates. Each reaction well contained 25 mM HEPES pH 7.5, 10 mM magnesium acetate and 50 μM unlabeled ATP. […] Activated human p38 kinase alpha was used at 1 μg per 50 μl reaction volume representing a final concentration of 0.3 μM. Gamma ^32P-ATP was used to follow the phosphorylation of PHAS-I. ^32P-ATP has a specific activity of 3000 Ci/mmol and was used at 1.2 μCi per 50 μl reaction volume. The reaction proceeded either for one hour or overnight at 30° C.
Following incubation, 20 μl of reaction mixture was transferred to a high capacity streptavidin coated filter plate (SAM-streptavidin-matrix, Promega) prewetted with phosphate buffered saline, The transferred reaction mix was allowed to contact the streptavidin membrane of the Promega plate for 1-2 minutes. […] Filter plates were air-dried and 20 μl of scintillant was added. The plates were sealed and counted.
A second assay format was also employed that is based on p38 kinase alpha induced phosphorylation of EGFRP (epidermal growth factor receptor peptide, a 21 mer) in the presence ^33P-ATP. Compounds were tested in 10 fold serial dilutions over the range of 100 μM to 0.001 μM in 1% DMSO. Each concentration of inhibitor was tested in triplicate. Compounds were evaluated in 50 μl reaction volumes in the presence of 25 mM Hepes pH 7.5, 10 mM magnesium acetate, 4% glycerol, 0.4% bovine serum albumin, 0.4 mM DTT, 50 μM unlabeled ATP, 25 μg EGFRP (200 μM), and 0.05 μCi ^33p-ATP. Reactions were initiated by addition of 0.09 μg of activated, purified human GST-p38 kinase alpha. Activation was carried out using GST-MKK6 (5:1,p38:MKK6) for one hour at 30° C. in the presence of 50 μM ATP. Following incubation for 60 minutes at room temperature, the reaction was stopped by addition of 150 μl of AG 1×8 resin in 900 mM sodium formate buffer, pH 3.0 (1 volume resin to 2 volumes buffer). The mixture was mixed three times with pipetting and the resin was allowed to settle. A total of 50 μl of clarified solution head volume was transferred from the reaction wells to Microlite-2 plates. 150 μl of Microscint 40 was then added to each well of the Microlite plate, and the plate was sealed, mixed, and counted.

In order of falling IC50:
1. O=c1c(Br)c(OCc2ccc(F)cc2)ccn1Cc1cccnc1 [II]  873 nM
2. O=c1c(Br)c(OCc2ccc(F)cc2F)ccn1Cc1ccc(F)cc1F [JJ]  850 nM
3. N#Cc1ccc(Cn2ccc(OCc3ccc(F)cc3)c(Br)c2=O)cc1 [GG]  785 nM
4. O=c1c(I)c(OCc2ccc(F)cc2)ccn1Cc1cccc(F)c1 [HH]  746 nM
5. O=c1c(Br)c(OCc2cccc(Cl)c2)ccn1Cc1cccc(F)c1 [AA]  691 nM
6. O=c1c(Br)c(OCc2ccccc2)ccn1Cc1ccc(Br)cc1 [FF]  581 nM
7. Cc1cc(OCc2ccccc2)c(Br)c(=O)n1-c1c(Cl)cccc1Cl [DD]  554 nM
8. COC(=O)c1ccc(Cn2ccc(OCc3ccccc3)c(Br)c2=O)cc1 [Z]  507 nM
9. COc1cccc(Cn2ccc(OCc3ccc(F)cc3F)c(Br)c2=O)c1 [Example S]  498 nM
10. N/C(=N/O)c1ccc(Cn2ccc(OCc3ccccc3)c(Br)c2=O)cc1 [Y]  489 nM
11. Cc1cccc(C)c1-n1c(C)cc(OCc2ccc(F)cc2)c(Br)c1=O [V]  455 nM
12. O=c1c(Cl)c(OCc2ccccc2)ccn1Cc1ccccc1 [X]  450 nM
13. CSc1ccc(Cn2ccc(OCc3ccccc3)c(Br)c2=O)cc1 [W]  450 nM
14. O=c1c(Br)c(OCc2ccc(F)cc2)ccn1Cc1ccc(F)cc1 [B]  403 nM
15. Cc1cc(OCc2ccc(F)cc2)c(Br)c(=O)n1-c1c(Cl)cccc1Cl [P]  403 nM
16. Cc1ccc(Cn2ccc(OCc3ccccc3)c(Br)c2=O)cc1 [Q]  365 nM
17. O=c1c(Br)c(OCc2ccc(F)cc2F)ccn1Cc1ccccc1F [M]  360 nM
18. Cc1cc(OCc2ccccc2)c(Br)c(=O)n1Cc1ccccc1 [K]  219 nM
19. Cc1cc(OCc2ccc(F)cc2F)c(Br)c(=O)n1Cc1ccncc1 [I]  210 nM
20. Cc1cc(OCc2ccc(F)cc2F)c(Br)c(=O)n1-c1c(Cl)cccc1Cl [G]  179 nM
21. O=c1c(Br)c(OCc2ccccc2)ccn1Cc1ccc(F)cc1 [D]  170 nM
22. O=c1c(Br)c(OCc2ccc(F)cc2F)ccn1Cc1cccc(F)c1 [E]  129 nM
23. Cc1cccc(C)c1-n1c(C)cc(OCc2ccc(F)cc2F)c(Br)c1=O [C]  64.6 nM

Same assay, conditions: Table II; several values in a cell = repeat determinations; read-out: p38A

In order of rising IC50:
1. Cc1cc(OCc2ccccc2)c(Br)c(=O)n1Cc1ccccc1 [XX]  219 nM
2. O=c1c(Br)c(OCc2ccc(F)cc2)ccn1Cc1cccc(Cl)c1 [UU]  1140 nM
3. O=c1c(Br)c(OCc2ccc(Cl)cc2)ccn1Cc1ccccc1 [MM]  1380 nM
4. O=c1c(Br)c(OCc2ccccc2)ccn1Cc1ccc(OCc2ccccc2)cc1 [TT]  1450 nM
5. O=c1c(Br)c(OCc2ccccc2)ccn1Cc1ccc(C(F)(F)F)cc1 [MMM]  1530 nM
6. Cc1cc(OCc2cccc(Cl)c2)c(Br)c(=O)n1Cc1ccccc1 [CCC]  1600 nM
7. Cc1ccc(COc2ccn(Cc3ccccc3)c(=O)c2Br)cc1 [LL]  1730 nM
8. CCn1ccc(OCc2ccccc2)c(Br)c1=O [AAA]  1990 nM
9. O=c1c(Br)c(OCc2ccccc2Cl)ccn1Cc1ccccc1 [NN]  2030 nM
10. O=c1c(Br)c(OCc2ccccc2)ccn1CCc1cccs1 [YYY]  2230 nM
11. O=c1c(Br)c(OCc2ccc(Cl)cc2)ccn1Cc1ccc(Cl)cc1 [OO]  2460 nM
12. O=c1c(Br)c(OCc2ccccc2)ccn1Cc1ccc(OC(F)(F)F)cc1 [DDDD]  2510 nM
13. O=c1c(Br)c(SCc2ccccc2)ccn1Cc1ccccc1 [BBBB]  3600 nM
14. CC(C)(C)c1ccc(Cn2ccc(OCc3ccccc3)c(Br)c2=O)cc1 [ZZ]  3670 nM
15. O=c1c(Br)c(OCc2ccc(Cl)cc2)ccn1Cc1cccc(Cl)c1 [RR]  6800 nM
16. Cn1ccc(OCc2ccccc2)c(Br)c1=O [EEE]  11500 nM
17. Cn1ccc(OCc2ccccc2)c(Br)c1=O [GGG]  13200 nM
18. O=c1c(Br)c(OCc2c(Cl)cccc2Cl)ccn1Cc1ccccc1 [VV]  14300 nM
19. O=c1c(Br)c(OCc2ccc(F)cc2)ccn1CCCc1ccccc1 [HHH]  18000 nM
20. O=c1c(CO)c(OCc2ccccc2)ccn1Cc1ccccc1 [NNN]  24900 nM
21. O=c1cc(OCc2ccccc2)ccn1Cc1ccccc1F [FFFF]  33800 nM
22. O=c1cc(OCc2ccccc2)ccn1Cc1cccc(F)c1 [PPP]  35800 nM
23. Cc1cc(OCc2ccccc2)cc(=O)n1Cc1ccccc1 [OOOO]  38700 nM
24. Cc1c(Br)c(OCc2ccccc2)c(Br)c(=O)n1Cc1ccccc1 [FFF]  41600 nM
25. O=c1c(Br)c(OCc2ccc(Cl)cc2)ccn1CCSc1ccccc1 [RRR]  56500 nM
26. O=c1c(Br)c(OCc2ccccc2C(F)(F)F)ccn1Cc1ccccc1 [CCCC]  77600 nM
27. O=c1cc(OCc2ccccc2Cl)ccn1Cc1ccccc1 [WWW]  81800 nM
28. O=c1c(Br)c(OCc2ccccc2)ccn1CC1CCNCC1 [III]  90900 nM

For `Cc1c(OCc2ccccc2)ccn(Cc2ccccc2)c1=O` [JJJ], the IC50 was 7990 nM and 3460 nM.
In the case of `O=c1cc(OCc2ccccc2)ccn1Cc1ccccc1` [EEEE], the IC50 is reported as 26400 nM and 59200 nM and 49000 nM.

Same assay, conditions: Table III; n = number of times assayed, n=1 if not reported; read-out: p38 Alpha IC50

In order of falling IC50:
1. CCn1ccc(OCc2ccccc2)c(Br)c1=O [SSSSS]  1990 nM
2. O=c1c(Br)c(OCc2ccccc2)ccn1Cc1ccc(F)nc1 [RRRRR]  1850 nM
3. O=c1c(I)c(OCc2ccccc2)ccn1Cc1cccc(F)c1 [PPPPP]  1760 nM
4. Cc1ccc(COc2ccn(Cc3ccccc3)c(=O)c2Br)cc1 [QQQQQ]  1730 nM
5. Cc1cc(CCc2ccccc2)c(Br)c(=O)n1Cc1cccc(F)c1 [LLLLL]  1710 nM
6. Cc1ccccc1COc1ccn(Cc2cccc(F)c2)c(=O)c1Br [NNNNN]  1690 nM
7. Cc1cc(OCc2cccc(Cl)c2)c(Br)c(=O)n1Cc1ccccc1 [OOOOO]  1600 nM
8. O=c1c(Br)c(OCc2ccc(F)cc2)ccn1CC1CC1 [JJJJJ]  1550 nM
9. O=c1c(Br)c(OCc2ccccc2)ccn1Cc1ccc(C(F)(F)F)cc1 [MMMMM]  1530 nM
10. O=c1c(Br)c(OCc2ccccc2)ccn1Cc1ccc(OCc2ccccc2)cc1 [KKKKK]  1450 nM
11. O=c1c(Br)c(NCc2ccccc2)ccn1Cc1cccc(F)c1 [HHHHH]  1180 nM
12. O=c1c(Br)c(OCc2ccc(F)cc2)ccn1Cc1cccc(Cl)c1 [IIIII]  1140 nM
13. O=c1c(Cl)c(OCc2ccc(F)cc2)ccn1Cc1ccc(F)cc1 [FFFFF]  1080 nM
14. COc1ccc(Cn2ccc(OCc3ccc(F)cc3)c(Br)c2=O)cc1 [GGGGG]  1040 nM
15. O=c1c(Br)c(OCc2cccc(Cl)c2)ccn1Cc1cccc(F)c1 [DDDDD]  691 nM
16. Cc1cc(OCc2c(F)cccc2F)c(Br)c(=O)n1Cc1ccncc1 [EEEEE]  684 nM
17. O=c1c(Br)c(OCc2ccccc2CO)ccn1Cc1cccc(F)c1 [CCCCC]  663 nM
18. Cc1cccc(C)c1-n1ccc(OCc2ccc(F)cc2)c(Br)c1=O [BBBBB]  455 nM
19. Cc1cc(OCc2c(F)cccc2F)c(Br)c(=O)n1-c1c(Cl)cccc1Cl [YYYY]  339 nM
20. O=c1c(Br)c(OCc2ccc(F)cc2F)ccn1Cc1cccnc1 [XXXX]  282 nM
21. Cc1cccc(COc2ccn(Cc3cccc(F)c3)c(=O)c2Br)c1 [WWWW]  260 nM
22. Cc1cccc(C)c1-n1c(C)cc(OCc2c(F)cccc2F)c(Br)c1=O [QQQQ]  199 nM
23. Cc1cc(OCc2ccc(F)cc2F)c(Br)c(=O)n1Cc1ccncc1 [VVVV]  183 nM
24. NCc1cccc(Cn2ccc(OCc3ccc(F)cc3)c(Br)c2=O)c1 [TTTT]  175 nM
25. Cc1cc(OCc2ccc(F)cc2F)c(Br)c(=O)n1Cc1cccnc1 [RRRR]  132 nM
26. Cc1cccc(C)c1-n1c(C)cc(OCc2c(F)cc(F)cc2F)c(Br)c1=O [PPPP]  97 nM
